One may read the inhibition as the share of the control response that was lost under treatment. A higher inhibition goes with a strong effect. As a reminder, the IC50 is the concentration that gives 50% inhibition. High values mean a need for much substance, low ones inhibition by little substance.

The structures appear in SMILES notation.

For 12 compounds, inhibition and IC50 results are on record in patent US11434249B1, “ASK1 inhibitor compounds and uses thereof” (Seal Rock Therapeutics, Inc., priority 2018, dated 2022).

Sequence of ASK1 (Q99683 whole entry): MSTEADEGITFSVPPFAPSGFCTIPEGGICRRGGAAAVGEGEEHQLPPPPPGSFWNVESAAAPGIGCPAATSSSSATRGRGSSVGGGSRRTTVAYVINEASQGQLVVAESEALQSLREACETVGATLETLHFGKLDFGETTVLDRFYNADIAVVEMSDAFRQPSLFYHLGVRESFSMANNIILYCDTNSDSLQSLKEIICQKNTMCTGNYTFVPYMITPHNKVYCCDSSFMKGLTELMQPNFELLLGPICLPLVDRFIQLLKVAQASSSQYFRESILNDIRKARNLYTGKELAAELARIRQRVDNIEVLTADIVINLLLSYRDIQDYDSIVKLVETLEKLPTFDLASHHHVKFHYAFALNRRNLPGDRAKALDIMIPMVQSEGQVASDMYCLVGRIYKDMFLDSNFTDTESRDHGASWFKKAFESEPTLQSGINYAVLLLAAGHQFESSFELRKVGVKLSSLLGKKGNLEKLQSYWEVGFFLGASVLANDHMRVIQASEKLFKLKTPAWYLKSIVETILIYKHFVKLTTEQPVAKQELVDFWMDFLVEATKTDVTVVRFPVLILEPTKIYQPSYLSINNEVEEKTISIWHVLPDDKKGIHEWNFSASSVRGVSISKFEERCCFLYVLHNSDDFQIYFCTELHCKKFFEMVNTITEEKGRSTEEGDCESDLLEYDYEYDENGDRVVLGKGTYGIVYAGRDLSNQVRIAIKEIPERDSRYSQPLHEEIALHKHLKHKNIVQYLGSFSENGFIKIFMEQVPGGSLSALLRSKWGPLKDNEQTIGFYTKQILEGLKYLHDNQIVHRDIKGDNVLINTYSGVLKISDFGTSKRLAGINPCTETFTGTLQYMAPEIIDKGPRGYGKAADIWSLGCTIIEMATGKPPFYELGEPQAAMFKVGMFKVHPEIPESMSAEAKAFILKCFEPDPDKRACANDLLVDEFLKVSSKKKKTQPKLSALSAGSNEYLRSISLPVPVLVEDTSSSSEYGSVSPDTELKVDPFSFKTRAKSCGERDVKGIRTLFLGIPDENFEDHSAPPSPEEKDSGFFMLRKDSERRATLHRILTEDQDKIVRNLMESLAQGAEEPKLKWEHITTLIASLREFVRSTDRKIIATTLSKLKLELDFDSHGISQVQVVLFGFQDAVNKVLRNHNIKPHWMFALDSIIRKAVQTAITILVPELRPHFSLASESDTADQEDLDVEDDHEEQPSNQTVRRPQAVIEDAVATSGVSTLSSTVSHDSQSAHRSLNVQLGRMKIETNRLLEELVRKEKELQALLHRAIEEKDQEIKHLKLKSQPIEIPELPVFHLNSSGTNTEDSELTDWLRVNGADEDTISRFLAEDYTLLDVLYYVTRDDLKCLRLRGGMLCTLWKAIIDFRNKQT

One test deals with ASK1 (Homo sapiens (Human), UniProt Q99683). The test can be described thus: ASK1 Kinase Assay (Promega ASK1 Kinase Enzyme System, ADP-Glo luminescence). It counts as biochemical. Particulars: at 10 μM compound; enzyme 50 nM, ATP 10 μM. The method, then:
The ASK1 enzymatic assay was run following Promega ASK1 Kinase Enzyme System (Cat #V3881). The kit provides the protocol, enzymes and all reagents necessary to run an assay.
The compounds, enzyme, substrate and ATP were diluted in provided assay buffer. The final concentration of the enzyme was 50 nM, substrate (Myelin basic protein) 1 μg/mL and ATP 10 μM. The compound and the enzyme were pre-incubated in a 384-well white solid bottom plate (Greiner, Cat #784075) for 10 minutes. After incubation, the substrate and ATP were added and incubated for an additional 60 minutes. After 60 minutes, ADP-Glo™ was added and the plate was incubated for another 40 minutes. After 40 minutes, Kinase Detection Reagent was added and the plate was incubated for 45 minutes. After 45 minutes, the plate was read on a Perkin Elmer EnVision using luminescence read (0.5 seconds/well).
Background: ADP-Glo first removes unused ATP, then detects ADP through luciferase.
Turning to `O=C1c2scc(-c3ccccc3)c2CN1c1cccc(-c2nncn2C2CC2)n1` [Example 7, 5-(6-(4-cyclopropyl-4H-1,2,4-triazol-3-yl)pyridin-2-yl)-3-phenyl-4,5-dihydro-6H-thieno[2,3-c]pyrrol-6-one], the inhibition at 10 µM worked out at 45%.

The test is the same for the next values; noted with them: enzyme 50 nM, Myelin basic protein 1 μg/mL, ATP 10 μM.
As to `O=C1c2sccc2CN1c1cccc(-c2nncn2C2CC2)n1` [Example 1, 5-(6-(4-Cyclopropyl-4H-1,2,4-triazol-3-yl)pyridin-2-yl)-4,5-dihydro-6H-thieno[2,3-c]pyrrol-6-one], the IC50 is below 1000 nM. Still for that read-out and setting: the same measure for `CC(=O)c1ccccc1-c1cc2c(s1)C(=O)N(c1cccc(-c3nncn3C3CC3)n1)C2` [Example 2, 2-(2-Acetylphenyl)-5-(6-(4-cyclopropyl-4H-1,2,4-triazol-3-yl)pyridin-2-yl)-4,5-dihydro-6H-thieno[2,3-c]pyrrol-6-one]: below 1000 nM; for `O=C1c2sc(C3CCOCC3)cc2CN1c1cccc(-c2nncn2C2CC2)n1` [Example 4, 5-(6-(4-cyclopropyl-4H-1,2,4-triazol-3-yl)pyridin-2-yl)-2-(tetrahydro-2H-pyran-4-yl)-4,5-dihydro-6H-thieno[2,3-c]pyrrol-6-one]: below 1000 nM. Same read-out and setting: as for `Cc1cc2c(s1)C(=O)N(c1cccc(-c3nncn3C3CC3)n1)C2` [Example 5, 5-(6-(4-cyclopropyl-4H-1,2,4-triazol-3-yl)pyridin-2-yl)-2-methyl-4,5-dihydro-6H-thieno[2,3-c]pyrrol-6-one], the figure is below 1000 nM; as for `CCc1cc2c(s1)C(=O)N(c1cccc(-c3nncn3C3CC3)n1)C2` [Example 6, 5-(6-(4-cyclopropyl-4H-1,2,4-triazol-3-yl)pyridin-2-yl)-2-ethyl-4,5-dihydro-6H-thieno[2,3-c]pyrrol-6-one], below 1000 nM; as for `Cc1csc2c1CN(c1cccc(-c3nncn3C3CC3)n1)C2=O` [Example 9, 5-(6-(4-cyclopropyl-4H-1,2,4-triazol-3-yl)pyridin-2-yl)-3-methyl-4,5-dihydro-6H-thieno[2,3-c]pyrrol-6-one], below 1000 nM. Same read-out and setting: the same measure for `O=C1c2scc(Br)c2CN1c1cccc(-c2nncn2C2CC2)n1` [Example 10, 3-bromo-5-(6-(4-cyclopropyl-4H-1,2,4-triazol-3-yl)pyridin-2-yl)-4,5-dihydro-6H-thieno[2,3-c]pyrrol-6-one]: below 1000 nM. Compound `CC(C)CNc1csc2c1CN(c1cccc(-c3nncn3C3CC3)n1)C2=O` [Example 11, 5-(6-(4-cyclopropyl-4H-1,2,4-triazol-3-yl)pyridin-2-yl)-3-(isobutylamino)-4,5-dihydro-6H-thieno[2,3-c]pyrrol-6-one] registered a half-inhibitory concentration (IC50) of 1000 to 10000 nM. Compound `O=C1c2sc3ccccc3c2CN1c1cccc(-c2nncn2C2CC2)n1` [Example 12, 2-(6-(4-cyclopropyl-4H-1,2,4-triazol-3-yl)pyridin-2-yl)-1,2-dihydro-3H-benzo[4,5]thieno[2,3-c]pyrrol-3-one] showed a half-maximal inhibitory concentration (IC50) below 1000 nM.

As to `COc1cc2c(s1)C(=O)N(c1cccc(-c3nncn3C3CC3)n1)C2` [Example 13, 5-(6-(4-cyclopropyl-4H-1,2,4-triazol-3-yl)pyridin-2-yl)-2-methoxy-4,5-dihydro-6H-thieno[2,3-c]pyrrol-6-one], the concentration for half-maximal inhibition (IC50) was below 1000 nM.

`CC(C)n1cnnc1-c1cccc(N2Cc3ccsc3C2=O)n1` [Example 14, 5-(6-(4-isopropyl-4H-1,2,4-triazol-3-yl)pyridin-2-yl)-4,5-dihydro-6H-thieno[2,3-c]pyrrol-6-one] had an IC50 below 1000 nM.
